Experimental data published in ChEMBL document CHEMBL1201862, “PubChem BioAssay data set” (2004).
Activity calls are given as the source filed them. No stated cut-off is given here; in the data, actives have a measured IC50 and inactives only a lower limit.

Biological target: Envelope glycoprotein gp160 (Human immunodeficiency virus 1, UniProt Q6QLK5)
Assay: cell-free HIV fusion peptide-binding blockers – biochemical, uHTS, fluorescence dequenching, […] (AID 1986)

Envelope glycoprotein gp160, sequence (Q6QLK5 whole entry, the tested form may be a part): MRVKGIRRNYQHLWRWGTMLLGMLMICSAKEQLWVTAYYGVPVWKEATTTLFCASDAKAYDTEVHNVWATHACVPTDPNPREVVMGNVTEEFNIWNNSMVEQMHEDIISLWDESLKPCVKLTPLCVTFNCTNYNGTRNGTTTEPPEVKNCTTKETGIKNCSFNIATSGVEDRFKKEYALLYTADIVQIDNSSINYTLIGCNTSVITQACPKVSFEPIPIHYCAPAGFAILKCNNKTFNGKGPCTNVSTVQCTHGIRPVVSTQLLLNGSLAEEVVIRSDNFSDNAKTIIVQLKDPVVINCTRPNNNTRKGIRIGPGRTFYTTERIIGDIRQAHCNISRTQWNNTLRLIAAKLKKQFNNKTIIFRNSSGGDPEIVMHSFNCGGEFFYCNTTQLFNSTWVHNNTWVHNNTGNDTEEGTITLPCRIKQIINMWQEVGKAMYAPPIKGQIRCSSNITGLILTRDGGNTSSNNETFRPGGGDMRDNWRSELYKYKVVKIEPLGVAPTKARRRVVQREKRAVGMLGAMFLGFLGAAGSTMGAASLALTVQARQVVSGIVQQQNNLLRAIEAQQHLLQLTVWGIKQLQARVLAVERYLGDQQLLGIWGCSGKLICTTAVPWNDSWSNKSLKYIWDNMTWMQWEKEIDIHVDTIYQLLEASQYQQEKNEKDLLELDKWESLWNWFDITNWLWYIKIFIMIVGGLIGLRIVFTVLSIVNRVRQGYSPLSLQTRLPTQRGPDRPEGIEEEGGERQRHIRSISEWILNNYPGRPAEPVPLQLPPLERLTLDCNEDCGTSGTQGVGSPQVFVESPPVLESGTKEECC

N#Cc1c(O)nc(SCC(=O)N2c3ccccc3Sc3ccccc32)nc1-c1ccccc1
IC50: 13.1 µM (active)

O=C1NN(c2ccc(Cl)cc2)C(=O)/C1=C\c1ccc(-c2cccc(C(=O)O)c2)o1
IC50: 11.9 µM (active)

COc1ccc(OC)c(N2C(=O)/C(=C/c3ccco3)C(=O)NC2=S)c1
IC50: 12.6 µM (active)
